The experiment addresses T1, OmTRPV1 (Oncorhynchus masou, UniProt Z9PIN9CDR2).
T1 construct: cDNA cloned from spinal cord into pOX(+) via EcoRI/NotI; forward primer starts at ATG, reverse primer with stop codon; cRNA-injected Xenopus laevis oocytes; S487 and V525 correspond to mammalian S512 and T550
T1 sequence (Z9PIN9CDR2 1-804): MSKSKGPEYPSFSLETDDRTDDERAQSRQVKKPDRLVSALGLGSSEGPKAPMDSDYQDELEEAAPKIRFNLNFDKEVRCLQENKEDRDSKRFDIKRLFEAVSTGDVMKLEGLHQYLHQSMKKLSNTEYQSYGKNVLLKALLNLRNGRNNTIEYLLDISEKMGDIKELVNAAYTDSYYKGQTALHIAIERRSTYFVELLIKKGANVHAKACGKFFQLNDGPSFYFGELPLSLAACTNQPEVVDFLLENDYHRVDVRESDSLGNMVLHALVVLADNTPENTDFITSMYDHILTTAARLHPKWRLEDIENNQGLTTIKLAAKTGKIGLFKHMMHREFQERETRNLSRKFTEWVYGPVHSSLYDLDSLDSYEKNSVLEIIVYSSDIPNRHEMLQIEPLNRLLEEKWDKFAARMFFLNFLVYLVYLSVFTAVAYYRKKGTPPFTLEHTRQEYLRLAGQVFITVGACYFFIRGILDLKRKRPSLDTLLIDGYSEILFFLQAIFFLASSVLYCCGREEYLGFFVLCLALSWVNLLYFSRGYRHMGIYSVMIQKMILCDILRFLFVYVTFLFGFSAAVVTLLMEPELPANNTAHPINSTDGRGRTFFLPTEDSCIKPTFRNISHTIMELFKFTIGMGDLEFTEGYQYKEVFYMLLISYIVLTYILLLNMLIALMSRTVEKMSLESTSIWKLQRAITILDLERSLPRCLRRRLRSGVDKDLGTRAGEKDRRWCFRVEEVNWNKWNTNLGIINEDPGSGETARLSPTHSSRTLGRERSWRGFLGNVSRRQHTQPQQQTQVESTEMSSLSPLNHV
In words: two-electrode voltage-clamp, Xenopus laevis oocytes. The format is cell-based. In general terms: In two-electrode clamp one electrode senses voltage and the other passes current.

One may read the EC50 as the midpoint of the concentration-response curve.

Compound `COc1cc(CNC(=O)CCCC/C=C/C(C)C)ccc1O` [capsaicin] returned an EC50 of 10.4 µM.

For the origin of these results see paper PMC9309644, “Functional analysis of thermo-sensitive TRPV1 in an aquatic vertebrate, masu salmon (Oncorhynchus masou ishikawae)” (Biochemistry and Biophysics Reports, 2022).
